Assay results published in patent US20250338846A1, “COMPOSITIONS HAVING PESTICIDAL UTILITY AND PROCESSES RELATED THERETO” (CORTEVA AGRISCIENCE, LLC, priority 2022, published 2025).

Experiments:
Format in all cases: in vivo
[1] = test system: Western Flower Thrips (Frankliniella occidentalis, FRANOC); test: Bioassay 3: Western Flower Thrips, cotton leaf disc dip, live WFT counted 3 days after treatment; settings: Frankliniella occidentalis, foliar, 72 h; for pest or weed control at 0.005 % strength: AI alone 0.005 % w/v
Procedure: Stock solutions of Formula One and various active ingredients were prepared initially at a concentration of 8 mg/ml for Formula One and 1 mg/mL for the active ingredients, respectively, using acetone as a diluent. Stock solutions were prepared with Formula One as well as for each of the active ingredients individually. Test solutions were prepared from the stock solutions. Test solutions were prepared containing Formula One, the individual active ingredients, and mixtures of Formula One with each of the active ingredients. The test solution for Formula One was prepared by adding 500 μL of the stock solution to a 25 mL glass vial, then adding 500 μL of acetone, followed by the addition of 9 mL water with 0.025% Tween®) 20 to create a 0.04% (w/v) solution. The test solutions of the individual active ingredients were prepared by adding 500 μL of stock solution to a 25 mL glass vial, then adding 500 μL of acetone, followed by the addition of 9 mL water with 0.025% Tween®) 20 to create a 0.005% (w/v) solution. The test solutions containing mixtures of Formula One and the individual active ingredients were prepared by adding 500 μL of the active ingredient stock solution to a 25 mL glass vial, followed by 500 μL of the Formula One stock solution, then by the addition of 9 mL water with 0.025% Tween®) 20 to create a test solution containing 0.04% (w/v) Formula One and 0.005% (w/v) of the active ingredient. Each test solution was serially diluted to create desired doses of test solutions (0.005% (w/v), 0.00125% (w/v), 0.0003125% (w/v), 0.000078% (w/v), and 0.0000195% (w/v)). In test solutions containing mixtures of Formula One and the active ingredients, the active ingredients were diluted as described above, but the Concentration of Formula One was held constant (0.04% (w/v)).
The test solutions were tested against WFT using the following procedure: Leaf discs (2.7 cm in diameter) were cut from the true leaves of cotton plants. Leaf discs were dipped into the test solutions and shaken to ensure complete coverage of the leaf disc and then placed in Millipore®) PetriSlides containing a filter paper disc. Treated leaf discs were air dried for approximately 1 hour. Each leaf disc was infested with 5 WFT (9-10-day old nymphs) by placement on each leaf disc, and the PetriSlides were capped to prevent escape. Each treatment was replicated three times and the test treatments were held at approximately 26° C. and ambient relative humidity (RH) prior to grading. Reference discs (solvent check) were treated with the diluent only. Evaluation was conducted by counting the number of live WFT under magnification 3 days after treatment. Percent control was measured using Abbott's correction formula (W. S. Abbott, J. Econ. Entomol. 18 (1925), pp. 265-267) as follows:
where X=No. of live nymphs on solvent check leaf discs and Y=No. of live nymphs on treated leaf discs. In Table B3 the “Expected % Control” was calculated using the method described in Colby S. R., Weeds, 1967, 15, 20-22. Bioassay 4: Western Tarnished Plant Bug (Lygus hesperus, LYGUHE) (“WTPB”).

[2] = test system: Neotropical Brown Stink Bug (Euschistus heros, EUSCHE); test: whole plant or invertebrate; settings: Euschistus heros, 72 h, read-out: Average % Control AI
Procedure: X=No. of live nymphs on solvent check and Y=No. of live nymphs on treated bean segments. In Table B4 the “Expected % Control” was calculated using the method described in Colby S. R., Weeds, 1967, 15, 20-22. Bioassay 5: Neotropical Brown Stink Bug (Euschistus heros, EUSCHE) (“BSB”).
Stock solutions were prepared with Formula One as well as for each of the active ingredients individually. Test solutions were prepared from the stock solutions. Test solutions were prepared containing Formula One, the individual active ingredients, and mixtures of Formula One with each of the active ingredients. The test solution for Formula One was prepared by adding 500 μL of the stock solution to a 25 mL glass vial, then adding 500 μL of acetone, followed by the addition of 9 mL water with 0.025% Tween®) 20 to create a 0.04% (w/v) solution. The individual active ingredients were prepared by adding 500 μL of stock solution to a 25 mL glass vial, then adding 500 μL of acetone, followed by the addition of 9 mL water with 0.025% Tween®) 20 to create a 0.005% (w/v) solution. The test solutions containing mixtures of Formula One and the individual active ingredients were prepared by adding 500 μL of the active ingredient stock solution to a 25 mL glass vial, followed by 500 μL of the Formula One stock solution, then by the addition of 9 mL water with 0.025% Tween®) 20 to create a test solution containing 0.04% (w/v) Formula One and 0.005% (w/v) of the active ingredient. Each test solution was serially diluted to create desired doses of test solutions (0.01% (w/v), 0.0025% (w/v), 0.000625% (w/v), 0.000156% (w/v), and 0.000039% (w/v)). In test solutions containing mixtures of Formula One and the active ingredients, the active ingredients were diluted as described above, but the Concentration of Formula One was held constant (0.04% (w/v)).
The test solutions that were tested against BSB were similar to those described above for WTPB. Fresh green beans were cut into segments approximately 1.5 inches long. Four bean segments were added to each test solution and soaked for approximately 15 minutes. After soaking, a single bean fragment was removed and placed into a single well of a 32-well rearing tray (Frontier Agricultural Sciences™), on top of a round filter paper disc. A reference treatment (solvent check) was treated with the diluent only. Each treatment was replicated four times and the test treatments were held at approximately 26° C. and ambient relative humidity (RH) prior to grading. Bean segments were allowed to air dry for ˜30 minutes. Three BSB nymphs were added to and contained in each well with a clear perforated adhesive lid. The total number of living BSB nymphs was recorded 3 days after application. Scoring was based off the total number of living nymphs out of all four replicates. Percent control was measured using Abbott's correction formula (W. S. Abbott, J. Econ. Entomol. 18 (1925), pp. 265-267) as follows:
where X=No. of live nymphs on solvent check and Y=No. of live nymphs on treated bean segments. In Table B5 the “Expected % Control” was calculated using the method described in Colby S. R., Weeds, 1967, 15, 20-22. Bioassay 6: Beet Armyworm (Spodoptera exigua, LAPHEG) (BAW), and Diamondback Moth (Plutella xylostella, PLUTMA) (DBM).

[3] = test system: Sweet Potato Whitefly (Bemisia tabaci, BEMITA); test: Bioassay 2: Sweet Potato Whitefly, spray on cotton seedlings at crawler emergence, nymphs counted 7-9 days after treatment; settings: AI alone 0.1 (10-5) % w/v
Procedure: Stock solutions were prepared with Formula One as well as for each of the active ingredients individually. Test solutions were prepared from the stock solutions. Test solutions were prepared containing Formula One, the individual active ingredients, and mixtures of Formula One with each of the active ingredients. The test solutions for Formula One and the individual active ingredients were prepared by adding 500 μL of stock solution to a 25 mL glass vial, then adding 500 μL of acetone, followed by the addition of 9 mL water with 0.025% Tween®) 20 to create a 0.001% (w/v) solution. The test solutions containing mixtures of Formula One and the individual active ingredients were prepared by adding 500 μL of the active ingredient stock solution to a 25 mL glass vial, followed by 500 μL of the Formula One stock solution, then by the addition of 9 mL water with 0.025% Tween®) 20 to create a test solution containing 0.001% (w/v) Formula One and 0.001% (w/v) of the active ingredient. Each test solution was serially diluted to create desired doses of test solutions (0.001% (w/v), 0.0001% (w/v), 0.00001% (w/v), 0.000001% (w/v), 0.0000001% (w/v), and 0.00000001% (w/v)).
The test solutions were tested against SPW using the following procedure: Cotton seedlings grown in 3-inch pots, pruned so that only one true leaf remained, were used as test substrate. Adult B. tabaci were allowed to colonize the cotton plants and lay eggs for 24 hours after which all adults were removed from the plants using compressed air. Plants were monitored for egg development and, when crawler emergence was underway (>25% emergence based on visual examination using a microscope), the plants were sprayed using the test solutions and methods described above for green peach aphids (GPA). Treated plants were held in a holding room at approximately 25° C. and ambient relative humidity (RH) prior to grading. Evaluation was conducted by counting the number of developed 2-3 instar nymphs per plant under a microscope 7-9 days after treatment. Percent control was measured using Abbott's correction formula (W. S. Abbott, J. Econ. Entomol. 18 (1925), pp. 265-267) as follows:
where X=No. of live nymphs on solvent check plants and Y=No. of live nymphs on treated plants. In Table B2 the “Expected % Control” was calculated using the method described in Colby S. R., Weeds, 1967, 15, 20-22. Bioassay 3: Western Flower Thrips (Frankliniella occidentalis, FRANOC) (“WFT”).

[4] = test system: Green Peach Aphid (Myzus persicae, MYZUPE); test: Bioassay 1: Green Peach Aphid, foliar spray on infested cabbage seedlings, live aphids counted three days after treatment
Procedure: Bioassay 1: Green Peach Aphid (Myzus persicae, MYZUPE) (“GPA”).
The stock solutions were prepared with Formula One as well as for each of the active ingredients individually. Test solutions were prepared from the stock solutions. Test solutions were prepared containing Formula One, the individual active ingredients, and mixtures of Formula One with each of the active ingredients. The test solutions for Formula One and the individual active ingredients were prepared by adding 750 microliters (μL) of stock solution to a 25 mL glass vial, then adding 750 μL of 1:1 acetone: methanol solvent, followed by the addition of 13.5 ml water with 0.025% Tween®) 20 to create a 0.0005% (weight/volume (w/v)) solution. The test solutions containing mixtures of Formula One and the individual active ingredients were prepared by adding 750 μL of the active ingredient stock solution to a 25 mL glass vial, followed by 750 μL of the Formula One stock solution, then by the addition of 13.5 mL water with 0.025% Tween®) 20 to create a test solution containing 0.0005% (w/v) Formula One and 0.0005% (w/v) of the active ingredient. Each test solution was serially diluted to create desired doses of test solutions (0.0005% (w/v), 0.000125% (w/v), 0.00003125% (w/v), 0.0000078% (w/v), 0.00000195% (w/v), and 0.0000005% (w/v)).
The test solutions were tested against GPA using the following procedure: Cabbage seedlings, grown in 3-inch pots with 2-3 small (3-5 centimeter (cm)) true leaves, were used as test substrate. The seedlings were infested with 20-50 GPA (wingless adult and nymph stages) one day prior to chemical application. Four pots with individual seedlings were used for each treatment. A hand-held aspirator-type sprayer was used for spraying a solution to both sides of […] leaves until runoff. Reference plants (solvent check) were sprayed with the diluent only (0.025% Tween®) 20 and 10% acetone:methanol (1:1) in water). Treated plants were held in a holding room for three days at approximately 25° C. and ambient relative humidity (RH about 20% to about 45%) prior to grading. Evaluation was conducted by counting the number of live aphids per plant under a microscope three days after treatment. Percent control was measured using Abbott's correction formula (W. S. Abbott, J. Econ. Entomol. 18 (1925), pp. 265-267) as follows:
where X=No. of live aphids on solvent check plants and Y=No. of live aphids on treated plants. In Table B1 the “Expected % Control” was calculated using the method described in Colby S. R., Weeds, 1967, 15, 20-22. Bioassay 2: Sweet Potato Whitefly (Bemisia tabaci, BEMITA) (“SPW”).

Work on `CNC(=O)c1cc(Cl)cc(C)c1NC(=O)c1cc(Br)nn1-c1ncccc1Cl` [Chlorantraniliprole] yielded a pest or weed control at 0.005 % strength [1] of 7%.
In the case of `CCOCn1c(-c2ccc(Cl)cc2)c(C#N)c(Br)c1C(F)(F)F` [Chlorfenapyr], the pest or weed control at 0.0025 % strength ([2]; AI alone 0.0025 % w/v) is reported as 8% and the pest or weed control at 0.005 % strength [1] is reported as 57%.
In the case of `CNC(=O)c1cc(C#N)cc(C)c1NC(=O)c1cc(Br)nn1-c1ncccc1Cl` [Cyantraniliprole], the “Average % Control AI” value [3] is reported as 0%.
With `CN/C(=N/CC1CCOC1)N[N+](=O)[O-]` (stereo not shown) [Dinotefuran] the pest or weed control at 0.000156 % strength [2] was 17%.
With `COc1cccc(C(=O)NN(C(=O)c2cc(C)cc(C)c2)C(C)(C)C)c1C` [Methoxyfenozide] the “Average % Control AI” value ([4]; AI alone 0.195 (10^-5) % w/v) was 5%.
With `CC(COc1ccc(Oc2ccccc2)cc1)Oc1ccccn1` (stereo not shown) [Pyriproxyfen] the “Average % Control AI” value [3] was 8% and the pest or weed control at 0.00125 % strength ([1]; AI alone 0.00125 % w/v) was 17%.
With `CCOC(=O)OC1=C(c2cc(C)ccc2C)C(=O)N[C@]12CC[C@@H](OC)CC2` [Spirotetramat] the “Average % Control AI” value ([4]; AI alone 0.05 (10^-5) % w/v) was 15% and the pest or weed control at 7.8e-05 % strength ([1]; AI alone 0.000078 % w/v, read-out: Average % Control AI) was 7%.
